Laboratory results published in US10952999B2, “Inhibitor of cyclin-dependent kinase CDK9” (GENFLEET THERAPEUTICS (SHANGHAI) INC., priority 2017, dated 2021).

Columns and labels:
Assay in all cases: Cancer cell growth, Cell Titer-Glo cell viability assay, 72 hours
Type in all cases: cell-based
[1] = tested on: MDS-RAEB (myelodysplastic syndrome-excess blasts type) cell line SKM-1; settings: Homo sapiens; SKM-1, 72 hours
Description: (§1) In the examples, we used acute myelocytic leukemia (AML) OCI-AML-3, acute promyelocytic leukemia cell line NB-4, MDS-RAEB (myelodysplastic syndrome-excess blasts type) cell line SKM-1, human leukemia cell Nomo-1, acute myeloid leukemia cell line MOLM14, acute myeloid leukemia cell line MOLM13, acute myeloid leukemia cell line MV4-11, acute myeloid leukemia cell line HL-60, acute myeloid leukemia cell line OCI-AML-2, histiocytic lymphoma U-937, acute B cell leukemia cell line MEC-1, acute B cell leukemia cell line MEC-2, acute megakaryoblastic leukemia CMK, hamster lung cell CHL, hamster ovary cell CHO, human non-small cell lung cancer cell H1975, human non-small cell lung cancer cell H358, human small cell lung cancer cell H209, human lung adenocarcinoma cell H1395, human non-small cell lung cancer cell PC-9, human lung cancer cell H3122, human non-small cell lung cancer cell H2122, human non-small cell lung cancer cell H1915, human lung adenocarcinoma cell H1355, human non-small cell lung cancer cell HCC827, human breast cancer cell MDA-MB-231, human breast cancer cell MDA-MB-468, human breast cancer cell MCF-7, human breast cancer cell T47D, human breast cancer cell SK-Br-3, the above cells were purchased from ATCC.
(§2) Cell Titer-Glo® (Promega, USA) chemical self-luminescence cell viability assay kit was used to detect the number of viable cells by quantitatively measuring ATP in living cells, according to which to calculate GI50 and IC50.

[2] = tested on: acute B cell leukemia cell line MEC-1; settings: Homo sapiens, MEC1; MEC-1, 72 hours
Description: as §1, §2

[3] = tested on: acute myeloid leukemia cell line HL-60; settings: Homo sapiens; HL-60, 72 hours
Description: as §1, §2

hamster lung cell CHL = settings: CHL, 72 hours
Description: as §1, §2

[4] = tested on: acute myeloid leukemia cell line MV4-11; settings: Homo sapiens; MV4-11, 72 hours
Description: as §1, §2

[5] = tested on: acute myeloid leukemia cell line MOLM13; settings: Homo sapiens; MOLM-13, 72 hours
Description: as §1, §2

[6] = tested on: acute myelocytic leukemia (AML) OCI-AML-3; settings: Homo sapiens, OCI-AML-3; OCI-AML3, 72 hours
Description: as §1, §2

[7] = tested on: acute myeloid leukemia cell line MOLM14; settings: Homo sapiens; MOLM-14, 72 hours
Description: as §1, §2

[8] = tested on: acute B cell leukemia cell line MEC-2; settings: MEC2; MEC-2, 72 hours
Description: as §1, §2

[9] = tested on: acute megakaryoblastic leukemia CMK
Description: as §1, §2

[10] = tested on: acute promyelocytic leukemia cell line NB-4; settings: NB4, 72 hours
Description: as §1, §2

[11] = tested on: human leukemia cell Nomo-1; settings: Homo sapiens; Nomo-1, 72 hours
Description: as §1, §2

[12] = tested on: histiocytic lymphoma U-937; settings: Homo sapiens; U-937, 72 hours
Description: as §1, §2

[13] = tested on: acute myeloid leukemia cell line OCI-AML-2; settings: Homo sapiens; OCI-AML2, 72 hours
Description: as §1, §2

hamster ovary cell CHO = settings: CHO, 72 hours
Description: as §1, §2

Row | SMILES | GI50 [1] | GI50 [2] | GI50 [3] | GI50 (hamster lung cell CHL) | GI50 [4] | GI50 [5] | GI50 [6] | GI50 [7] | GI50 [8] | GI50 [9] | GI50 [10] | GI50 [11] | GI50 [12] | GI50 [13] | GI50 (hamster ovary cell CHO)
1 | N[C@H]1CC[C@H](Nc2cc(-c3csc(NCC4CCOCC4)n3)c(Cl)cn2)CC1 [Compound 2, (1r,4r)-N^1-(5-chloro-4-(2-(((tetrahydro-2H-pyran-4-yl)methyl)amino)thiazol-4-yl)pyridin-2-yl)cyclohexane-1,4-diamine] | 85 nM | 270 nM | 550 nM | 3500 nM | 140 nM | 150 nM | 140 nM | 140 nM | 140 nM | 370 nM | 56 nM | 590 nM | 120 nM | 9100 nM | 2800 nM
2 | COC[C@H](C)N[C@H]1CC[C@H](Nc2cc(-c3csc(NCC4CCOCC4)n3)c(Cl)cn2)CC1 [Compound 5, (1S,4r)-N^1-(5-chloro-4-(2-(((tetrahydro-2H-pyran-4-yl)methyl)amino)thiazol-4-yl)pyridin-2-yl)-N^4-((S)-1-methoxypropan-2-yl)cyclohexane-1,4-diamine] | 350 nM | 1300 nM | 390 nM | 3600 nM | 440 nM | 640 nM | 820 nM | 490 nM | 770 nM | 1500 nM | 460 nM | 1000 nM | 430 nM | 470 nM | 1200 nM
3 | COC[C@@H](C)N[C@H]1CC[C@H](Nc2cc(-c3csc(NCC4CCOCC4)n3)c(Cl)cn2)CC1 [Compound 6, (1R,4r)-N^1-(5-chloro-4-(2-(((tetrahydro-2H-pyran-4-yl)methyl)amino)thiazol-4-yl)pyridin-2-yl)-N^4-((R)-1-methoxypropan-2-yl)cyclohexane-1,4-diamine] | 97 nM | 310 nM | 65 nM | 1100 nM | 140 nM | 130 nM | 150 nM | 110 nM | 130 nM | 350 nM | 110 nM | 290 nM | 110 nM | 120 nM | 400 nM
4 | O=C(Nc1cc(-c2csc(NCC3CCOCC3)n2)c(Cl)cn1)c1ccc(F)cc1 [Compound 8, N-(5-chloro-4-(2-(((tetrahydro-2H-pyran-4-yl)methyl)amino)thiazol-4-yl)pyridin-2-yl)-4-fluorobenzamide] | 150 nM | 3600 nM | 310 nM | 930 nM | 550 nM | 200 nM | 720 nM | 530 nM | 830 nM | 150 nM | 220 nM | 1000 nM | 1400 nM | 2900 nM | 1600 nM
5 | CNc1nc(-c2cc(N[C@H]3CC[C@H](NCCOC)CC3)ncc2Cl)cs1 [Compound 9, (1r,4r)-N^1-(5-chloro-4-(2-(methylamino)thiazol-4-yl)pyridin-2-yl)-N^4-(2-methoxyethyl)cyclohexane-1,4-diamine] | 750 nM | 1400 nM | 420 nM | 1900 nM | 530 nM | 1000 nM | 1100 nM | 680 nM | 1100 nM | 1800 nM | 700 nM | 1300 nM | 850 nM | 650 nM | 1200 nM
6 | COCCN[C@H]1CC[C@H](Nc2cc(-c3csc(NCC4CCCCC4)n3)c(Cl)cn2)CC1 [Compound 10, (1r,4r)-N^1-(5-chloro-4-(2-((cyclohexylmethyl)amino)thiazol-4-yl)pyridin-2-yl)-N^4-(2-methoxyethyl)cyclohexane-1,4-diamine] | 330 nM | 850 nM | 410 nM | 8000 nM | 1100 nM | 820 nM | 560 nM | 330 nM | 660 nM | 980 nM | 490 nM | 600 nM | 340 nM | 600 nM | 780 nM
